Assay results as given in patent US20080003288A1, “Responsive microgel and methods related thereto” (Supratek Pharma Inc., priority 2002, published 2008).
Like-named read-outs stand apart in the source and are kept apart here.

Experiments:
[1] = Dynamic dialysis without microgels: permeability of the dialysis membrane to free solutes; format: physicochemical; settings: through dialysis membrane, no microgel, from mean K and membrane thickness (eqn 3)
Text: Drug release from microgels loaded with either DCTAF-labeled PLURONIC® or doxorubicin was studied using the dynamic dialysis technique of Gupta, P. K., et al., J. Pharm. […] A Teflon-made, thermostatted dynamic dialyzer consisted of two chambers, separated by a dialysis membrane (cellulose ester, working area A=0.35 cm^2, molecular weight cut-off 100 kDa, Spectrum Laboratories). […] Concentration of the drug in the receiver solution was monitored online by passing through a thermostatted quartz cuvette (path length 1.0 cm). […] The dialyzer was maintained at 37° C. by submersion in a water bath. The flow rate through the receiver chamber was maintained at 1.5 mL/min. […] The total volume of the receiver solution (Vr), including the chamber, cuvette, and 0.093″ tubing, was 98 mL in all experiments.
Permeability of the dialysis membrane was determined by loading a certain amount (qf^0) of either doxorubicin or PLURONIC® solution into the feed chamber and measuring the kinetics of release. […] The membrane thickness (δ) was measured microscopically in the receiver solution upon completion of the dialysis experiment and was typically in the order of 100 μm. […]
In the control experiments, we measured permeability of the dialysis membrane for doxorubicin and PLURONIC® L61 without loading into microgels. […]

[2] = Transepithelial transport of doxorubicin across Caco-2 monolayers; format: in vitro ADME; settings: human
Method: (§1) The drug-containing samples for the transport experiments were prepared as follows. […] The suspension was centrifuged at 8000×g for 0.5 h and the supernatant was removed. The pellet was weighed and resuspended in fresh portion of serum-free DMEM of a known weight. Known amount of doxorubicin and Pluronic were dissolved in the suspension, which was allowed to equilibrate at 37° C. overnight, then snap-frozen and lyophilized. The powders were kept at −70° C. Before the transport experiments, a known amount of powder was reconstituted in DMEM and was allowed to equilibrate at 37° C. overnight.
(§2) Cells were seeded at a density of (2-4)×10^4 cells/cm^2 on top of Transwell™ polycarbonate filters (pore size, 0.4 μm; diameter, 24.5 mm; growth area, 4.71 cm^2) from Costar (Cambridge, Mass.). The cells were grown for 3 weeks prior to the transport experiments and trans-epithelial electrical resistance (TEER) was measured using a Millicell-ERS device (Millipore, Bedford, Mass.) equipped with rod-shaped electrodes. The TEER data were corrected for background readings contributed by the blank filter and culture medium. […] Then the monolayers were rinsed twice by serum-free DMEM and the transport experiment commenced by replacing the medium at either the basolateral or the apical side of the monolayer with 2.5 mL of the serum-free DMEM containing doxorubicin (with or without microgels, see Table 3). Simultaneously, the medium on the other side was refreshed. The monolayers were incubated at 37° C. in 10% CO2 atmosphere. Samples of 200 μL were taken from each side intermittently, and the drug concentration was measured in the samples withdrawn from the side opposite to the side of the drug application. The volumes withdrawn were immediately replaced with equal volumes of serum-free DMEM pre-equilibrated at 37° C. Each experiment was repeated four times. […] Additionally, the concentration of doxorubicin in the medium was measured by HPLC using a Capcell Pak UG C18 (100×4.6 mm I.D., particle size 5 μm) column and a Universal Guard Cartridge System (Phenomenex, Torrance, Calif.). […] Water/acetonitrile (70/30, pH 4) was used as the mobile phase (flow rate, 1 mL/min, injection volume, 5 μL), and detection was carried out using an Argon Ion laser (488 nm, 10 mW). […] Temperature was controlled to ±0.05 C using a circulating water bath. The platinum Wilhelmy plate was washed with acetone, rinsed in Milli-Q water, and flamed until red-hot before each measurement.
(§3) The apparent permeability of the Caco-2 monolayer (Pa, cm/s) was calculated from the linearized time course of the doxorubicin fractional transport (dI1t/dt in the fluorescence assay and dCt/dt in the HPLC assay) normalized to the effective surface area of the filter (A=4.71 cm^2) and the initial fluorescence emission intensity reading (Io) or initial doxorubicin concentration (Co) in the donor (basolateral or apical) compartment of volume V=2.5 cm^3: [formula]

Caco-2 monolayers = assay: as above; format: in vitro ADME; settings: doxorubicin 3 μM in donor, no further additive in DMEM
Method: as §1, §2, §3

[3] = Equilibrium loading (uptake) of drugs into microgels; format: physicochemical; settings: pH 7.0, PLURONIC-PAA microgels XL = 1 mol %
Method: A microgel was suspended in Tris buffer (5 mM, pH 7.0) and 50 μL of the suspension (2 mg gel/mL buffer) was equilibrated with 3.0 mM stock solution of a drug (450 μL) for 16 h while shaking 44, 45. Shaking was performed using a KS 10 orbital shaker (BEA-Enprotech Corp., Hyde Park, Mass.) in an environmental chamber at 37° C. […] Deionized water was used as a mobile phase (flow rate, 1 mL/min, injection volume, 25 μL), and detection was carried out at 365 nm 47. […] The U values were measured in triplicate for each drug and for each temperature, pH, and gel, respectively. […] This ensured equilibrium U values. […] The beads were separated into several fractions. […] Then the beads were recovered from the suspension by using a magnet. […] The control fraction of loaded beads was subjected to the extraction without equilibration with the microgel suspension.

[4] = cited from earlier work; for Charge: valency of cationic weak base, 0 = uncharged

Row | effective diffusion coefficient (D) [1] | Papp A→B at 3 μM ([2]; Caco-2, doxorubicin 3 μM in donor, no further additive in DMEM, read-out: Pa, a→b, HPLC assay) [×10⁻⁶ cm/s] | Papp B→A at 3 µM ([2]; Caco-2, doxorubicin 3 μM in donor, no further additive in DMEM, read-out: apparent permeability, b→a, HPLC assay) [×10⁻⁶ cm/s] | Papp B→A at 3 µM ([2]; Caco-2, doxorubicin 3 μM in donor, no further additive in DMEM, read-out: apparent permeability, b→a, fluorescence assay) [×10⁻⁶ cm/s] | efflux ratio ([2]; Caco-2, no additives, read-out: active efflux exceeding the passive influx) | Pa, a→b, fluorescence assay (Caco-2 monolayers) | Uptake ± SD ([3]; 20° C.) | SMILES | Uptake ± SD ([3]; 37° C.) | Log P (n-octanol-to-water partition coefficient) [4] | Charge [4]
1 | 2.4×10^−5 cm^2/s | 0.579 | 2.75 | 2.81 | 4.6 | (6.07±0.04)×10^−7 cm/s | 2.97 ± 0.33 (20° C.) mmol/g | COc1cccc2c1C(=O)c1c(O)c3c(c(O)c1C2=O)C[C@@](O)(C(=O)CO)C[C@@H]3O[C@H]1C[C@H](N)[C@H](O)[C@H](C)O1 [Doxorubicin] | 2.26 ± 0.37 (37° C.) mmol/g | 1.85 | 1
2 |  |  |  |  |  |  |  | O=C1c2c(O)ccc(O)c2C(=O)c2c(NCCNCCO)ccc(NCCNCCO)c21 [Mitoxantrone] | 3.70 ± 0.56 (37° C.) mmol/g |  | 
3 |  |  |  |  |  |  |  | CO[C@@]12[C@H](COC(N)=O)C3=C(C(=O)C(C)=C(N)C3=O)N1C[C@@H]1N[C@@H]12 [Mitomycin C] | 5.31 ± 1.86 (37° C.) mmol/g |  | 3
